We go through 23 compounds from patent US20230242530A1, “8-(AZETIDIN-1-YL)-[1,2,4]TRIAZOLO[1,5-A]PYRIDINYL COMPOUNDS, COMPOSITIONS AND METHODS OF USE THEREOF” (Genentech, Inc., priority 2016, published 2023).

Assay [1] deals with T1, isolated recombinant JAK1 kinase domain (Homo sapiens, UniProt P23458).
T1 construct: isolated recombinant JAK1 and JAK2 kinase domain
The assay is described as follows: JAK enzyme assay, JAK1 kinase domain (Caliper LabChip). The format is biochemical. Conditions: 1.5 nM JAK1, ATP 25 μM, Morrison tight binding model. Summed up: (§1)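 Ki values were obtained by Morrison tight-binding analysis with ATP-competitive correction, Ki=Ki,app/(1+[ATP]/Km,app). Phosphorylated versus total fluorescent JAK3-derived peptide was quantified on a Caliper LabChip. Kinase reactions with the isolated recombinant domains ran 30 min at 22 °C before EDTA quench (50 mM final).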

In assay [2] the target is T2, isolated recombinant JAK2 kinase domain (Homo sapiens, UniProt O60674).
T2 construct: isolated recombinant JAK1 and JAK2 kinase domain
T2 sequence (O60674 849-1124 limits assumed): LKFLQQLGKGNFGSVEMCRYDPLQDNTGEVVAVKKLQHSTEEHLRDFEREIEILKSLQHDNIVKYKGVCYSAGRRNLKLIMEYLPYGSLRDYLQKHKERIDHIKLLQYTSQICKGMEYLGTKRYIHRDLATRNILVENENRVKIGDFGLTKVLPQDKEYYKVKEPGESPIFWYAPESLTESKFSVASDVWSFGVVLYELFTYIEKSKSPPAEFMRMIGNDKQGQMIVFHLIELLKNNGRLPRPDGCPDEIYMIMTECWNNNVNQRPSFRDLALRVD
The assay is described as follows: JAK enzyme assay, JAK2 kinase domain (Caliper LabChip). The format is biochemical. To be noted: 0.2 nM JAK2, ATP 25 μM, Morrison tight binding model. Summed up:
as §1

Assay [3] relates to JAK1-dependent STAT6 phosphorylation downstream of IL-13 stimulation in BEAS-2B cells. Briefly: JAK1 pathway assay in cell lines: IL-13 p-STAT6 BEAS-2B. Conditions: BEAS-2B human bronchial epithelial cells, 1 hr compound, IL-13 15 min, MSD readout. The format is cell-based. The method, boiled down:
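Phospho-STAT6 read by MSD electrochemiluminescence in lysates of BEAS-2B cells kept in complete growth medium. Cells were pretreated 1 hr at 37 °C with compound (0.2% DMSO final) and stimulated 15 min with IL-13 at its EC90; EC50 is the concentration halving signal versus DMSO.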

pEC50, pKi: −log10 of the molar value.

T1 sequence (P23458 875-1153 limits assumed): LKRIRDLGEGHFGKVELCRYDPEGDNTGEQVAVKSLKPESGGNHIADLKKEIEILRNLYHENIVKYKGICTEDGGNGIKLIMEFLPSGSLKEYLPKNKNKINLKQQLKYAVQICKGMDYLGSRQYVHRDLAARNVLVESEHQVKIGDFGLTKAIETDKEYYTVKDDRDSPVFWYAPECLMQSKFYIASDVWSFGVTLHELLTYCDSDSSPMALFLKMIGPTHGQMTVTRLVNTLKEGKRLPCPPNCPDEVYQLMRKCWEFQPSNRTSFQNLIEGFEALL

In the case of `CCc1cnn(C2(CC#N)CN(c3cccn4nc(Nc5cnn(C)c5)nc34)C2)c1` [Example 127, 2-(3-(4-ethyl-1H-pyrazol-1-yl)-1-(2-((1-methyl-H-pyrazol-4-yl)amino)-[1,2,4]triazolo[1,5-a]pyridin-8-yl)azetidin-3-yl)acetonitrile], the pKi was 9.70 in assay [1] and 9.40 in assay [2]. Besides, in assay [3], the pEC50 was 8.00.
On the same counts, the results for `N#CCC1(n2cc(C(F)(F)F)cn2)CN(c2cccn3nc(Nc4cnn(CC(=O)N5CCN(C6CCOCC6)CC5)c4)nc23)C1` [Example 98, 2-[1-[2-[[1-[2-oxo-2-(4-tetrahydropyran-4-ylpiperazin-1-yl)ethyl]pyrazol-4-yl]amino]-[1,2,4]triazolo[1,5-a]pyridin-8-yl]-3-[4-(trifluoromethyl)pyrazol-1-yl]azetidin-3-yl]acetonitrile] are 9.30, 9.10 and 7.49.
For `CN1CCN(C(=O)Cn2cc(Nc3nc4c(N5CC(CC#N)(c6ccc(Cl)c(F)c6)C5)cccn4n3)cn2)CC1` [Example 23, 2-[3-(4-chloro-3-fluoro-phenyl)-1-[2-[[1-[2-(4-methylpiperazin-1-yl)-2-oxo-ethyl]pyrazol-4-yl]amino]-[1,2,4]triazolo[1,5-a]pyridin-8-yl]azetidin-3-yl]acetonitrile], the pKi in assay [1] is 9.15; in assay [2], 8.21. This compound had a pEC50 in assay [3] of 7.40.
On the same counts, the results for `CN1CCN(C(=O)Cn2cc(Nc3nc4c(N5CC(CC#N)(N6CCOCC6)C5)cccn4n3)cn2)CC1` [Example 8] are 9.52, 8.82 and 7.92.
With `CN1CCN(C(=O)Cn2cc(Nc3nc4c(N5CC(CC#N)(Cc6cccc(Cl)c6)C5)cccn4n3)cn2)CC1` [Example 102, 2-[3-[(3-chlorophenyl)methyl]-1-[2-[[1-[2-(4-methylpiperazin-1-yl)-2-oxo-ethyl]pyrazol-4-yl]amino]-[1,2,4]triazolo[1,5-a]pyridin-8-yl]azetidin-3-yl]acetonitrile], the pKi is 8.92 in assay [1] and 8.29 in assay [2]. Besides, in assay [3], the pEC50 was 6.54.
On the same counts, the results for `N#CCC1(n2cc(SC(F)F)cn2)CN(c2cccn3nc(Nc4cn[nH]c4)nc23)C1` [Example 151, 2-[3-[4-(difluoromethylsulfanyl)pyrazol-1-yl]-1-[2-(1H-pyrazol-4-ylamino)-[1,2,4]triazolo[1,5-a]pyridin-8-yl]azetidin-3-yl]acetonitrile] are 10.00, 8.85 and 7.38.
On the same counts, the results for `N#CCC1(c2cccc(Cl)c2)CN(c2cccn3nc(Nc4cnn(CC(=O)N5CCN(C6COC6)CC5)c4)nc23)C1` [Example 69, 2-[3-(3-chlorophenyl)-1-[2-[[1-[2-[4-(oxetan-3-yl)piperazin-1-yl]-2-oxo-ethyl]pyrazol-4-yl]amino]-[1,2,4]triazolo[1,5-a]pyridin-8-yl]azetidin-3-yl]acetonitrile] are 9.52, 9.30 and 7.68.
On the same counts, the results for `COc1cnn(C2(CC#N)CN(c3cccn4nc(Nc5cn[nH]c5)nc34)C2)c1` [Example 139, 2-[3-(4-methoxypyrazol-1-yl)-1-[2-(1H-pyrazol-4-ylamino)-[1,2,4]triazolo[1,5-a]pyridin-8-yl]azetidin-3-yl]acetonitrile] are 9.40, 9.05 and 7.41.
Take `COCCN1CCN(C(=O)Cn2cc(Nc3nc4c(N5CC(CC#N)(c6cccc(Cl)c6)C5)cccn4n3)cn2)CC1` [Example 81, 2-[3-(3-chlorophenyl)-1-[2-[[1-[2-[4-(2-methoxyethyl)piperazin-1-yl]-2-oxo-ethyl]pyrazol-4-yl]amino]-[1,2,4]triazolo[1,5-a]pyridin-8-yl]azetidin-3-yl]acetonitrile]: the pKi in assay [1] was 9.40; in assay [2], 9.00. In assay [3], this compound showed a pEC50 of 7.57.
On the same counts, the results for `CCc1cnn(C2(CC#N)CN(c3cccn4nc(Nc5cccc(CC(=O)N6CCN(C)CC6)c5)nc34)C2)c1` [Example 5, 2-[3-(4-ethyl-1H-pyrazol-1-yl)-1-[2-([3-[2-(4-methylpiperazin-1-yl)-2-oxoethyl]phenyl]amino)-[1,2,4]triazolo[1,5-a]pyridin-8-yl]azetidin-3-yl]acetonitrile] are 8.72, 8.51 and 6.92.
On the same counts, the results for `CN1CCN(C(=O)Cn2cc(Nc3nc4c(N5CC(CC#N)(n6cc(C(F)(F)F)cn6)C5)cccn4n3)cn2)CC1` [Example 15] are 8.66, 8.03 and below 6.00.
For `Cc1cnn(C2(CC#N)CN(c3cccn4nc(Nc5cnn(CC(=O)N6CCN(C)CC6)c5)nc34)C2)c1` [Example 10], the pKi in assay [1] is 9.40; in assay [2] it was 8.82. Also, in assay [3], the pEC50 was 7.74.
On the same counts, the results for `CCCc1cnn(C2(CC#N)CN(c3cccn4nc(Nc5cnn(CC(=O)N6CCN(C)CC6)c5)nc34)C2)c1` [Example 22] are 9.00, 8.52 and 7.44.
On the same counts, the results for `CCc1cnn(C2(CC#N)CN(c3cccn4nc(Nc5ccc(C(=O)N6CCN(C7COC7)CC6)cc5)nc34)C2)c1` [Example 44, 2-[3-(4-ethylpyrazol-1-yl)-1-[2-[4-[4-(oxetan-3-yl)piperazine-1-carbonyl]anilino]-[1,2,4]triazolo[1,5-a]pyridin-8-yl]azetidin-3-yl]acetonitrile] are 8.66, 7.53 and 6.19.
On the same counts, the results for `CCc1ccc(C2(CC#N)CN(c3cccn4nc(Nc5cnn(CC(=O)N6CCN(C)CC6)c5)nc34)C2)cc1` [Example 60, 2-[3-(4-ethylphenyl)-1-[2-[[1-[2-(4-methylpiperazin-1-yl)-2-oxo-ethyl]pyrazol-4-yl]amino]-[1,2,4]triazolo[1,5-a]pyridin-8-yl]azetidin-3-yl]acetonitrile] are 9.40, 8.54 and 7.72.
With `CCc1cnn(C2(CC#N)CN(c3cccn4nc(Nc5cnn(CC(=O)N6CCC(N(C)C7COC7)CC6)c5)nc34)C2)c1` [Example 34, 2-[3-(4-ethylpyrazol-1-yl)-1-[2-[[1-[2-[4-[methyl(oxetan-3-yl)amino]-1-piperidyl]-2-oxo-ethyl]pyrazol-4-yl]amino]-[1,2,4]triazolo[1,5-a]pyridin-8-yl]azetidin-3-yl]acetonitrile], the pKi in assay [1] is 9.40; in assay [2] it was 9.52. In assay [3], this compound gave a pEC50 of 7.82.
In the case of `CN1CCN(C(=O)Cn2cc(Nc3nc4c(N5CC(CC#N)(Cc6ccccc6Cl)C5)cccn4n3)cn2)CC1` [Example 126, 2-[3-[(2-chlorophenyl)methyl]-1-[2-[[1-[2-(4-methylpiperazin-1-yl)-2-oxo-ethyl]pyrazol-4-yl]amino]-[1,2,4]triazolo[1,5-a]pyridin-8-yl]azetidin-3-yl]acetonitrile], the values for the pKi in assay [1] and in assay [2] were 9.70 and 9.40, respectively. This compound had a negative-log EC50 (pEC50) in assay [3] of 7.92.
On the same counts, the results for `N#CCC1(n2cc(C(F)(F)F)cn2)CN(c2cccn3nc(Nc4ccc(CC(=O)N5CCN(C6COC6)CC5)cc4)nc23)C1` [Example 115, 2-[1-[2-[4-[2-[4-(oxetan-3-yl)piperazin-1-yl]-2-oxo-ethyl]anilino]-[1,2,4]triazolo[1,5-a]pyridin-8-yl]-3-[4-(trifluoromethyl)pyrazol-1-yl]azetidin-3-yl]acetonitrile] are 8.62, 7.64 and 6.86.
On the same counts, the results for `CCc1cnn(C2(CC#N)CN(c3cccn4nc(Nc5ccc(C(=O)N6CC7(CCN(C8COC8)CC7)C6)cc5)nc34)C2)c1` [Example 86, 2-[3-(4-ethylpyrazol-1-yl)-1-[2-[4-[7-(oxetan-3-yl)-2,7-diazaspiro[3.5]nonane-2-carbonyl]anilino]-[1,2,4]triazolo[1,5-a]pyridin-8-yl]azetidin-3-yl]acetonitrile] are 9.70, 9.70 and 7.96.
Consider `CSc1cccc(C2(CC#N)CN(c3cccn4nc(Nc5cnn(CC(=O)N6CCN(C)CC6)c5)nc34)C2)c1` [Example 78], for which the results for the pKi in assay [1] and in assay [2] were 9.52 and 9.05, respectively. Also, the pEC50 in assay [3] was 7.77.
Consider `CCc1cnn(C2(CC#N)CN(c3cccn4nc(Nc5cnn(CC(=O)N6CCN(CCCC#N)CC6)c5)nc34)C2)c1` [Example 68, 4-[4-[2-[4-[[8-[3-(cyanomethyl)-3-(4-ethylpyrazol-1-yl)azetidin-1-yl]-[1,2,4]triazolo[1,5-a]pyridin-2-yl]amino]pyrazol-1-yl]acetyl]piperazin-1-yl]butanenitrile], for which the pKi in assay [1] is 9.52; in assay [2], 9.30. In assay [3], this compound had a pEC50 of 7.85.
Turning to `CN1CCN(C(=O)Cn2cc(Nc3nc4c(N5CC(CC#N)(c6ccc(C(F)(F)F)cc6)C5)cccn4n3)cn2)CC1` [Example 17], the pKi was 9.52 in assay [1] and 8.92 in assay [2]. The compound further showed a pEC50 in assay [3] of 7.74.
Regarding `CN1CCN(C(=O)Cn2cc(Nc3nc4c(N5CC(CC#N)(n6cc(NCC(F)(F)F)cn6)C5)cccn4n3)cn2)CC1` [Example 104], the pKi was 9.52 in assay [1] and 10.00 in assay [2]. For the same compound, the pEC50 in assay [3] was 7.66.
